Test results reported in patent publication EP0069811A1, “Branched amides of L-aspartyl-D-amino acid dipeptides and compositions thereof” (PFIZER INC., priority 1981, dated 1983).
Where a SMILES comes first, the peptide text is derived from it. [ ]: non-standard residue; d: D form. The star is where a group is joined. OiPr = CC(C)O*; NHBu = CCCCN*

Test system: expert taste panel
Assay: Sweetness potency by comparison of gustatory sweetness with a sucrose standard (expert taste panel)
Assay type: in vivo
Conditions: aqueous solutions compared with aqueous sucrose solutions of 7-9% by an expert taste panel
Description: The sweetness potency of the instant compounds was determined by comparison of their gustatory sweetnesses with sucrose. Aqueous solutions of the compound of formula (I) diluted to a suitable range of concentrations were compared with a sucrose standard by an expert taste panel. Comparisons were generally made with aqueous sucrose solutions of 7-9%, i.e., 7-9 g. per 100 ml. Higher sucrose concentrations have a distinctive mouthfeel which may influence results and lower sucrose concentration are not indicative of normal use situations. If, for example a 0.014% solution of the compound of formula (I) is judged to be equally as sweet as a 7% sucrose solution, then the sweetness potency of that compound is 7/0.014 = 500 x sucrose. All of the sweetness potency values stated herein for the compounds of the invention were determined by this method. At threshold concentrations (i.e., the lowest concentration at which sweetness is first noticed, which for sucrose is ordinarily at concentrations in the range of 2-3%), the potency of a sweetener, such as the compounds of the invention, is generally twice that observed by comparison of its gustatory sweetness with 7-9% solutions of sucrose.

SMILES | Sweetness potency [x sucrose]
CC1CCCC(C)C1NC(=O)[C@@H](CO)NC(=O)[C@@H](N)CC(=O)O (mixture of isomers) [Example 9, L-Aspartyl-D-serine N-(dl-cis,trans-2,6-dimethylcyclohexyl)amide] | 200
N[C@@H](CC(=O)O)C(=O)N[C@H](CO)C(=O)NC(C1CC1)C1CC1 [Example 1, L-Aspartyl-D-serine N-(dicyclopropylcarbinyl)amide] | 700
CC(C)C(NC(=O)[C@@H](CO)NC(=O)[C@@H](N)CC(=O)O)C(C)C [Example 2, L-Aspartyl-D-serine N-(2,4-dimethyl-3-pentyl)amide] | 180
CC1(C)SC(C)(C)C1NC(=O)[C@@H](CO)NC(=O)[C@@H](N)CC(=O)O [Example 3, L-Aspartyl-D-serine N-(2,2,4,4-tetramethylthietan-3-yl)amide] | 1200
CC1(C)C(NC(=O)[C@@H](CO)NC(=O)[C@@H](N)CC(=O)O)C(C)(C)S1(=O)=O [Example 4, L-Aspartyl-D-serine N-(2,2,4,4-tetamethyl-1,1-dioxothietan-3-yl)amide] | 850
COC[C@@H](NC(=O)[C@@H](N)CC(=O)O)C(=O)NC(C1CC1)C1CC1 [Example 6, L-Aspartyl-D-O-methylserine N-(dicyclopropylcarbinyl)amide] | 85
COC[C@@H](NC(=O)[C@@H](N)CC(=O)O)C(=O)NC1C(C)(C)SC1(C)C [Example 7] | 320
COC[C@@H](NC(=O)[C@@H](N)CC(=O)O)C(=O)NC1C(C)(C)S(=O)(=O)C1(C)C [Example 8, L-Aspartyl-D-O-methylserine N-(2,2,4,4-tetramethyl-1,1-dioxothietan-3-yl)amide] | 200

Test system: taste panel
Assay: Taste panel evaluation of blends with sodium saccharin for taste acceptability and sweetness intensity against aqueous sucrose standards
Assay type: in vivo
Conditions: single components
Description: Blends of L-aspartyl-D-serine N-(2,2,4,4-tetra- methylthietan-3-yl)amide and sodium saccharin were prepared and evaluated for taste acceptability and sweetness intensity by comparison with aqueous sucrose standards.
The % synergy was calculated according to the following formula [formula] where A is the actual sweetness determined by averaging the taste panel results and T is the theoretical sweetness determined from the composition of the mixtures by weight e.g., for the 1:4 blend the theoretical sweetness is (1/5 x 1200) + (4/5 x 300) = 480.

SMILES | Sweetness potency factors used to calculate the theoretical sweetness of the blends [x sucrose]
CC1(C)SC(C)(C)C1NC(=O)[C@@H](CO)NC(=O)[C@@H](N)CC(=O)O [Example 3, L-Aspartyl-D-serine N-(2,2,4,4-tetramethylthietan-3-yl)amide] | 1200
O=C1NS(=O)(=O)c2ccccc21.[Na] [sodium saccharin] | 300

Test system: not given
Assay: not given
Conditions: 5% sucrose standard; Ariyoshi et al.; cited from earlier work

SMILES | times as sweet as a 5% sucrose standard [times]
CCCOC(=O)[C@@H](CO)NC(=O)[C@@H](N)CC(=O)O [L-aspartyl-D-serine n-propyl ester] | 320

Same assay, conditions: prior-art values; cited from earlier work

SMILES | Sweetness potency
CC1CCC1C(=O)OC[C@@H](C)NC(=O)[C@@H](N)CC(=O)O (some centres unmarked) | 160 x sucrose
C[C@H](COC(=O)C1CCC1)NC(=O)[C@@H](N)CC(=O)O | 220 x sucrose
C[C@H](COC(=O)C1CC1)NC(=O)[C@@H](N)CC(=O)O | 200 x sucrose
CC(C)OC(=O)[C@@H](C)NC(=O)[C@@H](N)CC(=O)O [L-aspartyl-D-alanine isopropyl ester] (H-Asp-[dA]-OiPr) | up to 125 x sucrose
COC(=O)C(NC(=O)[C@@H](N)CC(=O)O)C(=O)OC1CCCCC1C (stereo partly drawn) [L-aspartylaminomalonic acid methyl 2-methylcyclohexyl diester] | 6600 x sucrose
C[C@@H](NC(=O)[C@@H](N)CC(=O)O)C(=O)NC1CCCCC1 [cyclohexyl] | 100 x sucrose
CC(C)CNC(=O)[C@@H](C)NC(=O)[C@@H](N)CC(=O)O [isobutyl] | 100 x sucrose
CCCCNC(=O)[C@@H](C)NC(=O)[C@@H](N)CC(=O)O [n-butvlamide] (H-Asp-[dA]-NHBu) | 125 x sucrose
CCC(C)NC(=O)[C@@H](C)NC(=O)[C@@H](N)CC(=O)O (some centres unmarked) [secondary butyl] | 100 x sucrose
